In ChEMBL document CHEMBL1201862, “PubChem BioAssay data set” (2004):
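Exposure lasted 48 hours, with cells grown in 96-well plates and compounds tested at five concentrations. The concentration for 50% growth inhibition is given as GI50.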 Calls of active or inactive are those of the source. Rule as the data show it: active = GI50 up to about 1.1 µM and inactive = higher.

Tests used:
Test in all cases: DTP human tumour cell line panel, 48 h
[1] = tested on: ACHN
[2] = tested on: CCRF-CEM
[3] = tested on: Hs-578T
[4] = tested on: KM12
[5] = tested on: LOX IMVI
[6] = tested on: MOLT-4
[7] = tested on: Malme-3M
[8] = tested on: NCI/ADR-RES
[9] = tested on: OVCAR-8
[10] = tested on: RPMI-8226
[11] = tested on: RXF 393
[12] = tested on: SF-268
[13] = tested on: SF-539
[14] = tested on: SK-OV-3
[15] = tested on: SR
[16] = tested on: T47D
[17] = tested on: UACC-257
[18] = tested on: SK-MEL-2
[19] = tested on: HCC 2998

Measured: GI50

C[Si](C)(C)C#Cc1cc(-c2nc3ccccc3s2)ccc1N
inactive: [1] 15.7 µM | [2] 21.7 µM | [3] 20.8 µM | [4] 15.2 µM | [5] 17.8 µM | [6] 29.2 µM | [7] 3.35 µM | [8] 17.5 µM | [9] 16.7 µM | [10] 21.8 µM | [11] 17.5 µM | [12] 16.8 µM | [13] 18.7 µM | [14] 19 µM | [15] 26.4 µM | [16] 18.7 µM | [17] 19.5 µM

COC(=O)[C@@H]1O[C@]12[C@@H](CO[Si](C)(C)C(C)(C)C)O[C@@H](n1cc(C)c(=O)[nH]c1=O)[C@@H]2O[Si](C)(C)C(C)(C)C
inactive: [1] 16.6 µM | [2] 2.39 µM | [3] 19.1 µM | [4] 23 µM | [5] 3.38 µM | [6] 2.84 µM | [7] 21.6 µM | [8] 13.6 µM | [9] 15.3 µM | [11] 7.35 µM | [12] 15.4 µM | [13] 21.3 µM | [18] 15 µM | [14] 32.6 µM | [16] 6.31 µM | [17] 22.4 µM

CC1(O)OC(=O)C2=C1CCC1C2CCC2(C)C(O)CCC12 (configuration not stated)
inactive: [1] > 100 µM | [2] > 100 µM | [19] > 100 µM | [3] > 100 µM | [4] > 100 µM | [5] 25.6 µM | [6] > 10 µM | [7] > 100 µM | [8] > 100 µM | [9] > 100 µM | [10] > 100 µM | [12] > 100 µM | [13] > 100 µM | [15] > 100 µM | [16] > 100 µM | [17] > 100 µM

COc1ccc(N[C@H]([C@@H](c2ccccc2)[S+]([O-])c2ccc(C)cc2)C(F)(F)F)cc1 (some centres not stated)
inactive: [1] 35 µM | [2] 21.8 µM | [19] > 100 µM | [4] 33.4 µM | [5] 53.1 µM | [6] 34.9 µM | [7] 75.2 µM | [8] 87.3 µM | [9] 80.9 µM | [11] 53.5 µM | [13] 22.5 µM | [18] 40 µM | [14] > 100 µM | [15] > 100 µM | [16] > 100 µM | [17] > 100 µM

O=c1cc(-c2ccncc2)[nH]c2cc3c(cc12)OCO3
inactive: [1] > 100 µM | [19] > 100 µM | [3] > 100 µM | [4] > 100 µM | [6] > 100 µM | [8] > 100 µM | [9] > 100 µM | [10] > 100 µM | [11] > 100 µM | [12] > 100 µM | [13] > 100 µM | [18] > 100 µM | [14] > 100 µM | [16] > 100 µM | [17] > 100 µM

C=C(C)C(=O)[C@@]12C(=O)[C@@H](C)CC[C@H]1[C@H](C)C[C@@H]2C=C(C)C
inactive: [1] 12.9 µM | [2] 23.1 µM | [19] 14.8 µM | [4] 23.9 µM | [5] 18.7 µM | [6] 15.8 µM | [7] 18 µM | [8] 27.8 µM | [9] 30.7 µM | [10] 27.9 µM | [12] 17.2 µM | [13] 19.9 µM | [18] 13.8 µM | [14] 37 µM | [15] > 10 µM | [17] 15.2 µM

CC(=O)OCC1OC(N2C(=O)NC(=O)C3C=C4CCCCC4=CC32)C(OC(C)=O)C1OC(C)=O (configuration not stated)
inactive: [1] > 100 µM | [2] > 100 µM | [19] > 100 µM | [5] > 100 µM | [6] > 100 µM | [7] > 100 µM | [10] > 100 µM | [11] > 100 µM | [13] > 100 µM | [18] > 100 µM | [14] > 100 µM | [15] > 100 µM | [16] > 100 µM | [17] > 100 µM

O=C(O)C1(C(O)c2ccccc2)SCCCS1 (configuration not stated)
inactive: [1] > 10 µM | [2] > 10 µM | [3] > 10 µM | [4] > 10 µM | [5] > 10 µM | [6] > 10 µM | [7] > 10 µM | [9] > 10 µM | [11] > 10 µM | [12] > 10 µM | [13] > 10 µM | [18] > 10 µM | [14] > 10 µM | [15] > 10 µM | [16] > 10 µM | [17] > 10 µM

Cc1nc2c(sc(=S)n2-c2ccccc2)c(=O)[nH]1
inactive: [1] > 100 µM | [2] > 100 µM | [19] > 100 µM | [4] > 100 µM | [6] > 100 µM | [7] > 100 µM | [9] > 100 µM | [10] > 100 µM | [12] > 100 µM | [13] > 100 µM | [18] > 100 µM | [14] > 100 µM | [15] > 100 µM | [17] > 100 µM

O=C(O)c1cnc2c(ccc3ncc(C(=O)O)c(O)c32)c1O
inactive: [1] > 100 µM | [3] > 100 µM | [4] > 100 µM | [5] > 100 µM | [6] > 100 µM | [7] > 100 µM | [8] > 100 µM | [9] > 100 µM | [10] > 100 µM | [11] > 100 µM | [12] > 100 µM | [13] > 100 µM | [18] > 100 µM | [14] > 100 µM | [15] > 100 µM | [16] > 100 µM | [17] > 100 µM

Oc1ccc(-c2nc3cc(C(F)(F)F)ccc3s2)cc1
inactive: [1] 14.5 µM | [2] 12.2 µM | [4] 13.1 µM | [5] 12.8 µM | [6] 27.2 µM | [7] 13.6 µM | [8] 20 µM | [9] 15.6 µM | [10] 16.7 µM | [11] 17.4 µM | [12] 16.1 µM | [13] 19.5 µM | [18] 16.1 µM | [14] 26 µM | [15] 15.8 µM | [17] 18 µM

O=c1c(-c2ccc(O)cc2)coc2cc(O)cc(O)c12 [GENISTEIN]
inactive: [1] 29.7 µM | [2] > 10 µM | [19] > 100 µM | [3] 65.2 µM | [4] > 100 µM | [6] 40.4 µM | [7] > 100 µM | [8] > 100 µM | [9] > 100 µM | [10] 77.8 µM | [12] > 100 µM | [13] > 100 µM | [15] 56.8 µM | [16] > 100 µM
